{"source": "paper PMC9298350", "about": "(British Journal of Clinical Pharmacology, 2021)", "origin": "cited, not measured here"}
{"smiles": "Cc1c(N(C)CS(=O)(=O)O)c(=O)n(-c2ccccc2)n1C", "note": "[metamizole, Metamizole]", "values": [{"measurement": "Frequency of metamizole-associated agranulocytosis", "result": "0.46–1.63 cases per 10^6 daily doses"}, {"measurement": "Mortality associated with ingestion", "setting": "review of the available literature", "result": 0.25, "unit": "per 10^6 prescriptions"}]}
